Results on nine compounds are retold here after US4767761A, “Ornithine derivatives and their use as methotrexate-resistant cell inhibitors” (priority 1987, dated 1988).

Assay [1] deals with L 1210/R81 murine leukemia cells. Kind of assay: Cytotoxicity assay against L 1210/R81 murine leukemia cells, 48 hours. It is filed as cell-based. The settings on record: for IC50: Mus musculus, L1210 ( R81), read-out: L1210/R81 cell growth inhibition IC50; for L1210/R81 normalized relative to MTX: number in parentheses. As to the method: (§1) A cytotoxicity assay was carried out for the same group of compounds against L 1210 and L 1210/R81 murine leukemia cells cultured for 48 hours in RPMI 1640 medium containing 10% fetal bovine serum, using the procedure of Mosman, J. Immunol. Meth., Vol. 65, 55-63 (1983).

Assay [2] has as its system L 1210 murine leukemia cells. Kind of assay: Cytotoxicity assay against L 1210 murine leukemia cells, 48 hours. The class given is cell-based. As to conditions: for IC50: Mus musculus, read-out: L1210 cell growth inhibition IC50; for L1210 normalized relative to MTX: number in parentheses. How it is done:
as §1

The subject of assay [3] is dihydrofolate reductase (DHFR). The settings on record: result in words; Rosowsky et al. (1986); cited from earlier work.
The subject of assay [4] is folylpolyglutamate synthetase (FPGS). As to conditions: result in words; Rosowsky et al. (1986); cited from earlier work.
In the next assay the test system is cell growth in culture. As to conditions: result in words; Rosowsky et al. (1986); cited from earlier work.
The target of assay [5] is T1, DHFR (Dihydrofolate Reductase) from L 1210/R81 murine leukemia cells (Mus musculus, UniProt P00375).
T1 construct: endogenous in cells; host or cells: L1210/R81 murine leukemia cells
T1 sequence (P00375 1-187): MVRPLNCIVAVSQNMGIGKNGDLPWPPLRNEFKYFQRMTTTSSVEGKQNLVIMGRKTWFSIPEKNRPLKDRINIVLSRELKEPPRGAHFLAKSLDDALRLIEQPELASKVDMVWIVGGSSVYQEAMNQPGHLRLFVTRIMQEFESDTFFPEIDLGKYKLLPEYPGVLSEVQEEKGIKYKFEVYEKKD
The assay is described as follows: Inhibition of DHFR purified by MTX affinity chromatography from L 1210/R81 murine leukemia cells (spectrophotometric, 340 nm). It is filed as biochemical. As to conditions: range of six separate experiments on different days (footnote a, Table 1). How it is done: Inhibition of DHFR purified by MTX affinity chromatography from L 1210/R81 murine leukemia cells was determined. […] Certain of the compounds were also tested as inhibitors of partially purified FPGS from mouse liver.
IC50 concentrations (μM) were […]

For a further assay, the system named is CEM lymphoblasts. The assay is described as follows: Cell growth inhibition against human CEM lymphoblasts, 48 hours. The class given is cell-based. The settings on record: for IC50: Homo sapiens, CCRF-CEM, read-out: CEM cell growth inhibition IC50; for CEM normalized relative to MTX: number in parentheses. As to the method: (§2) In addition, four of the compounds were tested against human CEM and CEM/MTX lymphoblasts cultured fcr 48 hours in Dulbecco's modified Eagle's medium containing 10% fetal bovine serum.

Another assay deals with CEM/MTX lymphoblasts. Kind of assay: Cell growth inhibition against human CEM/MTX lymphoblasts, 48 hours. The class given is cell-based. The settings on record: for IC50: Homo sapiens, read-out: CEM/MTX cell growth inhibition IC50; for CEM/MTX normalized relative to MTX: number in parentheses. How it is done: as §2
Assay [6] deals with SCC15 cells. The assay is described as follows: Growth inhibition of human squamous carcinoma cells SCC15. The class given is cell-based. The settings on record: SCC-15, 336 h, continuous exposure about two weeks.
Assay [7] relates to SCC15/R1 cells. Kind of assay: Growth inhibition of MTX-resistant human squamous carcinoma cells SCC15/R1. It is filed as cell-based. As to conditions: SCC-15, 336 h, continuous exposure about two weeks.
In assay [8] the test system is SCC25 cells. The assay is described as follows: Growth inhibition of human squamous carcinoma cells SCC25. The class given is cell-based. The settings on record: SCC-25, 336 h, continuous exposure about two weeks.
Assay [9] concerns SCC25/R1 cells. The assay is described as follows: Growth inhibition of MTX-resistant human squamous carcinoma cells SCC25/R1. As to conditions: SCC-25, 336 h, continuous exposure about two weeks. It is filed as cell-based.
Assay [10] relates to parental SCC15 and SCC25 cells. Kind of assay: Growth inhibition of parental SCC15 and SCC25 cells (joint statement). It is filed as cell-based, human.
The subject of assay [11] is L1210, L1210/R81, CEM and CEM/MTX cells. Kind of assay: Cell growth inhibition of Table 2 (joint statement). The settings on record: comparison with the other compounds. The class given is cell-based, murine; human. As to the method: as §1
In addition, four of the compounds were tested against human CEM and CEM/MTX lymphoblasts cultured fcr 48 hours in Dulbecco's modified Eagle's medium containing 10% fetal bovine serum. The IC50 (μM) values, with normalized values relative to MTX given in parentheses, are reported in the last two columns of Table 2.

In assay [12] the test system is SCC15 cells. The settings on record: taken from Rosowsky et al. (1985); cited from earlier work.
Assay [13] concerns SCC15/R1 cells. As to conditions: taken from Rosowsky et al. (1985); cited from earlier work.
Assay [14] has as its system SCC25 cells. As to conditions: taken from Rosowsky et al. (1985); cited from earlier work.
Assay [15] deals with SCC25/R1 cells. As to conditions: taken from Rosowsky et al. (1985); cited from earlier work.
The subject of the next assay is mouse liver FPGS. The settings on record: footnote c, Table 1; see Moran et al.; cited from earlier work.
The subject of assay [16] is MTX-resistant SCC15/R1 and SCC25/R1 sublines. Kind of assay: Growth inhibition of MTX-resistant SCC15/R1 and SCC25/R1 sublines (joint statement). It is filed as cell-based, human.
The mark [17] stands for this setting: L1210, 48 hours, RPMI 1640, 10% fetal bovine serum.
The mark [18] stands for this setting: 48 hours, RPMI 1640, 10% fetal bovine serum.
The mark [19] stands for this setting: 48 hours, Dulbecco's modified Eagle's medium, 10% fetal bovine serum.

SMILES strings stand for the structures. Where two headings read alike, the source gives them in different places.

For the compound `Nc1nc(N)c2nc(CNc3ccc(C(=O)N[C@@H](CCC(=O)O)C(=O)O)cc3)cnc2n1` [Aminopterin, reference compound], the IC50 in [1] (48 h) was 84000 nM.
For the compound `NCCC[C@H](NC(=O)c1ccc(NCc2cnc3nc(N)nc(N)c3n2)cc1)C(=O)O` [Compound 1, N^α -(4-Amino-4-deoxypteroyl)-L-ornithine], the IC50 in assay [2] (L1210, 48 h) is 1300 nM; in assay [1] (48 h) it was 32000 nM. The “inhibitor of dihydrofolate reductase” value in assay [3] is on record as “potent inhibitor”. Moreover, the “inhibitor of folylpolyglutamate synthetase” value in assay [4] is given as “potent inhibitor”. Besides, the “inhibitor of cell growth in culture” value in the assay on cell growth in culture is “relatively inactive”.
Turning to `CC(=O)NCCC[C@H](NC(=O)c1ccc(NCc2cnc3nc(N)nc(N)c3n2)cc1)C(=O)O` [Compound 2], the IC50 in assay [2] (setting [17]) is 17 nM; in assay [1] (setting [18]), 81000 nM. Also, in [2], the “L1210 normalized relative to MTX” value is reported as 0.27. Also, the “L1210/R81 normalized relative to MTX” value in [1] is reported as 2.5.
For the compound `Nc1nc(N)c2nc(CNc3ccc(C(=O)N[C@@H](CCCNC(=O)c4ccccc4)C(=O)O)cc3)cnc2n1` [Compound 4], the IC50 was 0.56 to 1.5 nM in [5]; 0.89 nM in [2] (setting [17]); 17000 nM in assay [1] (setting [18]); 6.6 nM with CEM lymphoblasts (setting [19]); 1100 nM with CEM/MTX lymphoblasts (setting [19]). The “L1210 normalized relative to MTX” value in assay [2] is 5.2. Further, in assay [1], the “L1210/R81 normalized relative to MTX” value is 12. For the same compound, in the assay with CEM lymphoblasts, the “CEM normalized relative to MTX” value turned out to be 5.0. Moreover, the “CEM/MTX normalized relative to MTX” value in the assay with CEM/MTX lymphoblasts amounted to 6.0.
As for `Nc1nc(N)c2nc(CNc3ccc(C(=O)N[C@@H](CCCNC(=O)c4ccc(Cl)cc4)C(=O)O)cc3)cnc2n1` [Compound 5], the IC50 in assay [2] (setting [17]) was determined as 3.2 nM; in assay [1] (setting [18]), 27000 nM; with CEM lymphoblasts (setting [19]), 270 nM; in the assay on CEM/MTX lymphoblasts (setting [19]), 1000 nM. Besides, the “L1210 normalized relative to MTX” value in assay [2] is recorded as 1.4. For the same compound, the “L1210/R81 normalized relative to MTX” value in assay [1] amounted to 7.4. In the assay with CEM lymphoblasts, the “CEM normalized relative to MTX” value is 0.12. Further, the “CEM/MTX normalized relative to MTX” value in the assay on CEM/MTX lymphoblasts is recorded as 6.6.
Regarding `Nc1nc(N)c2nc(CNc3ccc(C(=O)N[C@@H](CCCNC(=O)c4ccc(Cl)c(Cl)c4)C(=O)O)cc3)cnc2n1` [Compound 6], the IC50 in [2] (setting [17]) came out at 32 nM; in [1] (setting [18]), 127000 nM; in the assay with CEM lymphoblasts (setting [19]), 7400 nM; in the assay on CEM/MTX lymphoblasts (setting [19]), 10000 nM. For the same compound, the “L1210 normalized relative to MTX” value in assay [2] turned out to be 0.14. Moreover, the “L1210/R81 normalized relative to MTX” value in assay [1] was 1.6. The “CEM normalized relative to MTX” value in the assay on CEM lymphoblasts was determined as 0.0043. In addition, the “CEM/MTX normalized relative to MTX” value with CEM/MTX lymphoblasts turned out to be 0.66.
`Nc1nc(N)c2nc(CNc3ccc(C(=O)N[C@@H](CCCNC(=O)c4ccccc4C(=O)O)C(=O)O)cc3)cnc2n1` [Compound 7, N^α -(4-Amino-4-deoxypteroyl)-N^67-hemi-phthaloyl-L-Ornithine]: the IC50 came out at 0.75 nM in assay [2] (L1210, 48 h); 4.3 nM in the assay on CEM lymphoblasts (48 h); 420 nM in the assay with CEM/MTX lymphoblasts (48 h); 1.1 nM in the assay with SCC15 cells [6]; 4 nM in the assay on SCC15/R1 cells [7]; 0.96 nM in the assay with SCC25 cells [8]. Besides, in the assay on SCC25/R1 cells [9], the IC50 worked out at 1.3 nM. Besides, the “more potent than MTX against the parental SCC15 and SCC25 cells” value in assay [10] (more potent than MTX) was 10- to 30 fold. The “activity shown in Table 2, result in words” value in assay [11] is “high activity”.
Take `CN(Cc1cnc2nc(N)nc(N)c2n1)c1ccc(C(=O)N[C@@H](CCC(=O)O)C(=O)O)cc1` [Methotrexate]: the IC50 was 200000 nM in assay [1] (48 h); 32 nM in the assay on CEM lymphoblasts (48 h); 6600 nM in the assay on CEM/MTX lymphoblasts (48 h); 38 nM with SCC15 cells [12]; 580 nM in the assay on SCC15/R1 cells [13]; 7.5 nM in the assay with SCC25 cells [14]. In addition, in the assay on SCC25/R1 cells [15], the IC50 is 150 nM. Besides, the “substrate for mouse liver FPGS” value in the assay with mouse liver FPGS is “substrates”.
Consider `CN(Cc1cnc2nc(N)nc(N)c2n1)c1ccc(C(=O)N[C@@H](CCC(=O)OC(C)(C)C)C(=O)O)cc1` [γ-t-butyl ester of MTX, γ-tert. -butyl ester of methotrexate], for which the “less potent than MTX against the parental SCC15 and SCC25 cells” value in [10] (less potent than MTX) is recorded as “at least 10 fold”. Also, the “less potent than MTX against the MTX-resistant SCC15/R1 and SCC25/R1 sublines” value in assay [16] is “at least 30 fold”. Also, the IC50 with SCC15 cells [12] is 600 nM; in the assay on SCC15/R1 cells [13], 1300 nM; with SCC25 cells [14], 400 nM; in the assay on SCC25/R1 cells [15] it was 780 nM.
